Experimental data taken from patent US3966747A, “9-Hydroxy-6,7-benzomorphans” (Bristol-Myers Company, priority 1974, dated 1976).
Read-outs that look alike come from different tables or passages of the source.

Assays:
[1] = test system: phenylquinone induced writhing; test: Agonist activity: mouse phenylquinone writhing; format: in vivo; conditions: for ED50: Mus musculus; for subcutaneous analgesic activity: in words
Description: (§1) In vivo testing was conducted on the compounds designated herein as dl-XVIc, l-XVIc tartrate, d-XVIc tartrate, dl-XVIe, dl-XVId and dl-XVIb to determine their agonist and/or antagonist properties. The figures reported are the number of milligrams/ kilogram of body weight of compound that produced an agonist or antagonist effect in 50% of the mice and rats so tested (ED50).
^1 A 50 percent reduction in number of phenylquinone induced writhing
(Siegmund, E. A. et al., Proc. Soc. Biol. & Med. 95, 729; 1957).
(§2) ^6 All values are reported in terms of the free base even though
(§3) administered as an acid addition salt.

[2] = test system: Straub Tail induced by oxymorphone; test: Antagonist activity: antagonism of Straub Tail induced by oxymorphone; format: in vivo, mice; conditions: oxymorphone 2 mg./kg. sc., as free base; for ED50: Mus musculus
Description: (§4) . The figures reported are the number of milligrams/ kilogram of body weight of compound that produced an agonist or antagonist effect in 50% of the mice and rats so tested (ED50).
^2 Antagonism of Straub Tail induced by oxymorphone (2 mg./kg. sc.) i
as §2, §3

[3] = test system: analgesic effect induced by morphine; test: animal or person; format: in vivo, Rat; conditions: for ED50: Rattus norvegicus
Description: as §4
mg./kg. sc.) as measured by the rat tail flick procedure (Harris, L. S.
and Pierson, A. K., J. Pharmacol. & Expt. Therap., 143, 141; 1964).
as §2, §3

[4] = In vivo testing for agonist and/or antagonist properties (overall statement); set-up: species or system mice and rats; conditions: in words
Description: as §1

[5] = test system: righting reflex loss induced by oxymorphone; test: animal or person; format: in vivo, rats; conditions: for ED50: Rattus norvegicus
[6] = SC, 50 percent reduction in number of writhings, as free base, read-out: ED50, Agonist Activity, Mouse Phenylquinone Writhing, SC
[7] = PO, read-out: ED50, Antagonist Activity, Oxymorphone Straub Tail, PO
[8] = SC, read-out: ED50, Antagonist Activity, Oxymorphone Straub Tail, SC
[9] = SC, morphine 15 mg./kg. sc., as free base, read-out: ED50, Antagonist Activity, Morphine Antagonism Rat Tail Flick, SC
[10] = SC, oxymorphone 1.5 mg./kg. sc., as free base, read-out: ED50, Antagonist Activity, Oxymorphone Narcosis, SC
[11] = PO, morphine 15 mg./kg. sc., as free base, read-out: ED50, Antagonist Activity, Morphine Antagonism Rat Tail Flick, PO
[12] = PO, 50 percent reduction in number of writhings, as free base, read-out: ED50, Agonist Activity, Mouse Phenylquinone Writhing, PO
[13] = PO, oxymorphone 1.5 mg./kg. sc., as free base, read-out: ED50, Antagonist Activity, Oxymorphone Narcosis, PO
[14] = SC, 50 percent reduction in number of writhings, as free base

C=CC[C@]12CCN(CC3CC3)[C@H](Cc3ccc(O)cc31)[C@@]2(C)O (relative stereo) [dl-XVIb, 2',9β-Dihydroxy-2-cyclopropylmethyl-5-allyl-9α-methyl-6,7-benzomorphan]
ED50 [1, 6]: > 40 mg/kg | subcutaneous analgesic activity [1]: weak subcutaneous analgesic activity | ED50 [2, 7]: 16 mg/kg | ED50 [2, 8]: 0.12 mg/kg | ED50 [3, 9]: 0.018 mg/kg | parenteral antagonist activity [4]: relatively potent parenteral antagonists

C=CC[C@]12CCN(CC3CCC3)[C@H](Cc3ccc(O)cc31)[C@@]2(C)O (relative stereo) [dl-XVIc, 2',9β-Dihydroxy-2-cyclobutylmethyl-5-allyl-9α-methyl-6,7-benzomorphan]
ED50 [1, 6]: 0.23 mg/kg | ED50 [2, 8]: 0.72 mg/kg | ED50 [5, 10]: 0.3 mg/kg | ED50 [3, 9]: 0.42 mg/kg | agonist and antagonist activity upon parenteral administration [4]: potent agonist and antagonist activity

C#CCN1CC[C@@]2(CC=C)c3cc(O)ccc3C[C@@H]1[C@@]2(C)O (relative stereo) [dl-XVId, 2',9β-Dihydroxy-2-propargyl-5-allyl-9α-methyl-6,7-benzomorphan]
ED50 [1, 6]: > 40 mg/kg | subcutaneous analgesic activity [1]: weak subcutaneous analgesic activity | ED50 [2, 8]: 1.41 mg/kg | ED50 [3, 9]: 0.14 mg/kg | parenteral antagonist activity [4]: relatively potent parenteral antagonists

CCC[C@]12CCN(CC3CC3)[C@H](Cc3ccc(O)cc31)[C@@]2(C)O (relative stereo) [dl-XVIe, 2',9β-Dihydroxy-2-cyclopropylmethyl-5-propyl-9α-methyl-6,7benzomorphan]
ED50 [1, 6]: > 40 mg/kg | subcutaneous analgesic activity [1]: weak subcutaneous analgesic activity | ED50 [2, 8]: 0.11 mg/kg | ED50 [5, 10]: 0.08 mg/kg | ED50 [3, 11]: 6 mg/kg | ED50 [3, 9]: 0.03 mg/kg | parenteral antagonist activity [4]: relatively potent parenteral antagonists

C[C@H]1[C@H]2Cc3ccc(O)cc3[C@]1(C)CCN2CC1CC1 [Cyclazocine]
ED50 [1, 12]: 4 mg/kg | ED50 [1, 6]: 0.047 mg/kg | ED50 [2, 7]: 24 mg/kg | ED50 [2, 8]: 0.81 mg/kg | ED50 [5, 13]: 2.7 mg/kg | ED50 [5, 10]: 0.12 mg/kg | ED50 [3, 11]: 3.7 mg/kg | ED50 [3, 9]: 0.04 mg/kg

C=CCN1CC[C@]23CCCC[C@H]2[C@H]1Cc1ccc(O)cc13 [Levallorphan]
ED50 [2, 7]: 46 mg/kg | ED50 [2, 8]: 0.29 mg/kg | ED50 [5, 13]: 5.4 mg/kg | ED50 [5, 10]: 0.32 mg/kg | ED50 [3, 11]: 12.6 mg/kg | ED50 [3, 9]: 0.086 mg/kg

C=CCN1CC[C@]23c4c5ccc(O)c4O[C@H]2[C@@H](O)C=C[C@H]3[C@H]1C5 [Nalorphine]
ED50 [1, 12]: 15 mg/kg | ED50 [1, 6]: 0.77 mg/kg | ED50 [2, 7]: > 64 mg/kg | ED50 [5, 13]: 5.4 mg/kg | ED50 [5, 10]: 0.58 mg/kg | ED50 [3, 11]: 22.1 mg/kg | ED50 [3, 9]: 0.38 mg/kg

C=CCN1CC[C@]23c4c5ccc(O)c4O[C@H]2C(=O)CC[C@@]3(O)[C@H]1C5 [Naloxone]
ED50 [1, 6]: 40 mg/kg | ED50 [2, 7]: 13.1 mg/kg | ED50 [2, 8]: 0.17 mg/kg | ED50 ([5]; po, read-out: ED50, Antagonist Activity, Oxymorphone Narcosis, PO): 0.95 mg/kg | ED50 ([5]; sc, read-out: ED50, Antagonist Activity, Oxymorphone Narcosis, SC): 0.02 mg/kg | ED50 ([3]; po, read-out: ED50, Antagonist Activity, Morphine Antagonism Rat Tail Flick, PO): 2.7 mg/kg | ED50 ([3]; sc, read-out: ED50, Antagonist Activity, Morphine Antagonism Rat Tail Flick, SC): 0.01 mg/kg

CC(C)=CCN1CCC2(C)c3cc(O)ccc3CC1C2C (stereo not drawn) [Pentazocine]
ED50 [1, 12]: 36 mg/kg | ED50 [1, 6]: 4.9 mg/kg | ED50 [2, 7]: 187 mg/kg | ED50 [2, 8]: 12 mg/kg | ED50 [5, 13]: 90 mg/kg | ED50 [3, 11]: 82.2 mg/kg

C=CCC12CCN(CC3CCC3)C(Cc3ccc(O)cc31)C2(C)O.O=C(O)C(O)C(O)C(=O)O (stereo not drawn) [d-XVIc, d-2',9β-Dihydroxy-9α-methyl-5-allyl-2-cyclobutylmethyl-6,7-benzomorphan tartrate]
ED50, Agonist Activity, Mouse Phenylquinone Writhing, SC [1, 14]: > 40 mg/kg | ED50, Antagonist Activity, Oxymorphone Straub Tail, SC ([2]; SC): ~ 40 mg./kg.

l-2', 9β-Dihydroxy-9α-methyl-5-propyl-2-cyclobutyl-6,7 -benzomorphan HCl [l-XVIr]
ED50, Agonist Activity, Mouse Phenylquinone Writhing, SC [1, 14]: 0.18 mg/kg | ED50, Antagonist Activity, Oxymorphone Straub Tail, SC ([2]; SC): 1.17 mg/kg | ED50, Antagonist Activity, Morphine Antagonism Rat Tail Flick, SC ([3]; SC, morphine 15 mg./kg. sc., as free base): 0.10 mg/kg

l- 2',9β-Dihydroxy-9α-methyl-5-allyl-2-cyclobutyl-6,7 -benzomorphan tartrate [l-XVIc]
ED50, Agonist Activity, Mouse Phenylquinone Writhing, PO ([1]; PO, 50 percent reduction in number of writhings, as free base): 8 mg/kg | ED50, Agonist Activity, Mouse Phenylquinone Writhing, SC [1, 14]: 0.055 mg/kg | ED50, Antagonist Activity, Oxymorphone Straub Tail, SC ([2]; SC): 0.43 mg/kg | ED50, Antagonist Activity, Oxymorphone Narcosis, SC ([5]; rat, in vivo, sc): 0.05 mg/kg | ED50, Antagonist Activity, Morphine Antagonism Rat Tail Flick, PO ([3]; rat, in vivo, po): 14.1 mg/kg | ED50, Antagonist Activity, Morphine Antagonism Rat Tail Flick, SC ([3]; rat, in vivo, sc): 0.08 mg/kg | agonist and antagonist activity upon parenteral administration [4]: potent agonist and antagonist activity
